Here are results for 69 molecules from the SangsterLogP compilation.

The nature of series [1]: method code SF-AS, from DOI: 10.1016/0021-9673(91)80064-n.
Test in series [2]: not given
This is another data set of the same source.

The nature of series [3]: method code SF, from DOI: 10.1021/js9700917, PMID: 9452977. The settings on record: pH 5.5.
The nature of series [4]: method code SF-RC, from DOI: 10.1016/s0026-895x(25)10639-1, PMID: 1170492.
Test in series [5]: not given
The source holds these as a separate data set.

Test in series [6]: not given
This is another data set of the same source.

Series [7] in a line: method code SF-GLC, from DOI: 10.1016/0147-6513(82)90020-3, PMID: 7106034.
Series [8] in a line: method code SF-GLC, from DOI: 10.1007/bf00212402, PMID: 7663085.
The nature of series [9]: method code SF-RC, from DOI: 10.1248/cpb.38.3099, PMID: 2085895. The settings on record: pH 7.4.
Series [10] is described as follows: method code SF, from PMID: 2704. The settings on record: pH 1.0.
Series [11] can be described thus: method code SF-AS, from DOI: 10.1016/0005-2728(86)90252-5, PMID: 3015209. To be noted: pH 7.2.
A short description of series [12]: method code SF-AS, from DOI: 10.2307/3577276, PMID: 2913608.
Test in series [13]: not given
This is another data set of the same source.

Test in series [14]: not given
This is another data set of the same source.

Series [15] is described as follows: method code SF-EPR, from DOI: 10.1016/0003-9861(82)90097-2, PMID: 6284047. To be noted: pH 7.4.
Series [16] is described as follows: method code SF, from DOI: 10.1002/qsar.19920110207. The settings on record: pH 1.0.
Test in series [17]: not given
This is another data set of the same source.

Test in series [18]: not given
This is another data set of the same source.

Test in series [19]: not given
The source holds these as a separate data set.

Test in series [20]: not given
This is another data set of the same source.

A short description of series [21]: method code SF-AS, from DOI: 10.1135/cccc19822514. To be noted: pH 3.5.
Test in series [22]: not given
This is another data set of the same source.

Test in series [23]: not given
The source holds these as a separate data set.

The nature of series [24]: method code SF-AS, from DOI: 10.1016/0006-2952(75)90156-2, PMID: 235934. The settings on record: pH 7.4.
The conditions of series [25]: pH 1.0.
The nature of series [26]: method code SF-AS, from DOI: 10.1248/cpb.21.2309, PMID: 4775970. The settings on record: pH 3.3.
The nature of series [27]: method code SF-RC, from DOI: 10.1002/ps.2780300102. The settings on record: pH 2.0.
Test in series [28]: not given
This is another data set of the same source.

Series [29] in a line: method code SF-HPLC, from DOI: 10.1002/jps.2600841008, PMID: 8801331.
Series [30] is described as follows: method code SF-AS, from DOI: 10.1016/j.bmc.2008.07.057, PMID: 18706818. The settings on record: pH 7.4.
Series [31] in a line: method code SF-AS, from DOI: 10.1111/j.2042-7158.1980.tb13082.x, PMID: 6110743.
Test in series [32]: not given
The source holds these as a separate data set.

Series [33] in a line: method code SF-AS, from DOI: 10.1080/09553007214550551, PMID: 4537457.
Series [34] in a line: method code SF-AS, from DOI: 10.1248/cpb.15.1705, PMID: 5583828. To be noted: pH 1.1.

One may read the logP as the decadic logarithm of the partition coefficient of the neutral form, usually between octanol and water. With `O=C(C(=O)c1ccc(Cl)cc1)c1ccccc1`, the logP is 2.6.

As for `C=CC(=O)NCCN1CCOCC1`, in [1], the logP is -0.55.

`CNC(=O)OCc1cccc(I)c1[N+](=O)[O-]` showed a logP in [2] of 1.64.

What is called logD is the decadic logarithm of the distribution of all forms, ionised or not, between an organic phase and buffer at a given pH. A lower logD goes with lower lipophilicity. Regarding `NS(=O)(=O)c1ncncc1-c1ccccc1`, the logD in series [3] was 0.5.

In turn, `CC(CSCC(C)=NNC(N)=S)=NNC(N)=S` yielded a logP in [4] of 0.7.

Molecule `CNC(=O)N(C)c1nc2ccccc2s1` came in with a logP in series [5] of 2.38.

Regarding `c1ccc(Nc2ccc3ccccc3c2)cc1`, the logP in series [6] came out at 4.38.

Consider `CCN(CC)C(=S)SSC(=S)N(CC)CC`, for which, in series [7], the logP amounted to 3.88.

Regarding `ClC1=C(Cl)C2(Cl)C3CC=CC3C1(Cl)C2(Cl)Cl` (centres undefined), the logP in series [8] came to 5.57.

For the molecule `CNC(=S)N/N=C(C)\C(C)=N/NC(=S)NC`, the logD in series [9] is 0.67.

With `COc1ccc(C=O)cc1C`, in series [10], the logD was 2.23.

Consider `Cc1cccc(C)c1NN=C(C#N)C#N`, for which the logD in series [11] was determined as 2.1.

`O=S1OCC2C(CO1)C1(Cl)C(Cl)=C(Cl)C2(Cl)C1(Cl)Cl` (centres undefined) registered a logP in series [7] of 3.83.

In series [12], `COC(=O)c1ccccc1NS(=O)(=O)c1[nH]cnc1[N+](=O)[O-]` registered a logP of 1.6.

Molecule `N#CC(C#N)=NNc1cccc(O)c1` registered a logD in [13] (pH 7.2) of 1.48.

Regarding `C=CC(=O)NCCCN1CCOCC1`, the logP in series [1] is -0.52.

Turning to `ClC1=C(Cl)C2(Cl)C3C(Cl)C(Cl)(Cl)CC3C1(Cl)C2(Cl)Cl` (centres undefined), in series [8], the logP was determined as 6.06.

`FC(F)(F)C1(F)C(F)(F)C(F)(F)C(F)(N2C(F)(F)C(F)(F)C(F)(F)C(F)(F)C2(F)F)C(F)(F)C1(F)F` (centres undefined): the logP in [14] was determined as 7.

The molecule `CNC(=S)NN=C(C)CSCC(C)=NNC(=S)NC` came in with a logP in [4] of 1.4.

With `CNC(=O)OCc1ccc(I)cc1[N+](=O)[O-]`, the logP in series [2] came out at 1.67.

`Cc1nc(NS(=O)(=O)c2ccc(N)cc2)oc1C` gave a logD in series [3] of 0.2.

For `CCC1(C)OCC(C)(C)N1[O]` (centres undefined), the logD in series [15] was determined as 1.

With `CC(=O)c1cccc(C(=O)O)c1`, the logD in series [16] amounted to 1.56.

In [6], `ClC1=C(Cl)C2(Cl)C3C4OC4C(Cl)C3C1(Cl)C2(Cl)Cl` (centres undefined) displayed a logP of 5.4.

Regarding `OCCC(F)(F)C(F)(F)C(F)(F)C(F)(F)C(F)(F)C(F)(F)C(F)(F)C(F)(F)F`, the logP in series [17] is 6.14.

`CCCOC(=O)c1ccccc1Cl` showed a logP in [18] of 3.45.

With `O=C(O)CCc1cccc(I)c1`, in [19], the logP amounted to 2.68.

`O=NN(CCCl)C(=O)NC1CCCC(O)C1` (centres undefined) displayed a logP in series [20] of 1.28.

The molecule `O=C(O)CCc1ccccc1` registered a logD in series [21] of 1.91.

With `CON=C(C#N)C(=O)NC(CCS(C)(=O)=O)C(=O)O` (centres undefined), the logP in series [22] was -0.52.

`Clc1cc2c(Cl)cc(Cl)c(Cl)c2c(Cl)c1Cl` gave a logP in series [23] of 6.87.

`CC(C)Oc1ccc([N+](=O)[O-])cc1`: in series [24], the logD is 2.8.

Turning to `CCOC(=O)c1cccc(O)c1`, in series [18], the logP amounted to 2.47.

`CON=C(C#N)C(=O)N[C@@H](CCSC)C(=O)O` displayed a logP in series [22] of 0.86.

`N#CC(C#N)=NNc1ccc([N+](=O)[O-])cc1Cl` registered a logD in series [11] of 2.

`O=C(O)C(c1ccc(Cl)cc1)c1ccc(Cl)cc1` gave a logD in series [25] of 4.64.

In the case of `Cc1nnc(NS(=O)(=O)c2ccc(N)cc2)s1`, in [26], the logD was found to be 0.26.

As for `OCCC(F)(F)C(F)(F)C(F)(F)C(F)(F)C(F)(F)C(F)(F)C(F)(F)C(F)(F)C(F)(F)C(F)(F)F`, the logP in series [17] is 7.57.

As for `COc1nc(C)nc(NC(=O)NS(=O)(=O)c2ccccc2Cl)n1`, the logD in series [27] was found to be 1.54.

Turning to `CC(=O)c1ccc(C(=O)O)cc1`, the logD in series [16] was determined as 1.61.

In series [28], `CCSc1nnc(C(C)(C)C)c(=O)n1N` displayed a logP of 2.08.

On to `CCNc1nc(Cl)nc(NC(C)CC)n1` (centres undefined), for which, in series [5], the logP stood at 3.02.

Regarding `CNC(=S)NN=C(C)CC(C)=NNC(=S)NC`, the logD in series [9] is 2.66.

In turn, `N#CC(C#N)=NNc1ccc(C(=O)CCl)cc1` gave a logD in series [13] (pH 3.0) of 2.15.

In series [19], `O=C(O)CNC(=O)c1cccc(I)c1` came in with a logP of 1.44.

In turn, `Clc1cc2c(Cl)c(Cl)c(Cl)c(Cl)c2c(Cl)c1Cl` registered a logP in series [23] of 7.33.

In series [29] (pH 11.0), `CCOC(=O)C1=C(COCCN)NC(C)=C(C(=O)OC)C1c1ccccc1Cl` (centres undefined) showed a logD of 3.09.

Molecule `CCCCC1(C(N)=O)CCC=[N+]1[O-]` (centres undefined) displayed a logD in series [30] of -0.18.

In series [31], `CCCCCOc1cccc(O)c1` showed a logP of 3.63.

In turn, `CCCCOc1ccc([N+](=O)[O-])cc1` showed a logD in series [24] of 3.5.

`CN(C(=O)NC(C)(C)c1ccccc1)c1ccccc1` returned a logP in [28] of 3.01.

In series [32], `Nc1ccc2c(S(=O)(=O)O)cc(S(=O)(=O)O)cc2c1` registered a logP of -1.6.

In series [14], `FC1(F)C(F)(F)C(F)(F)C2(F)C(F)(F)C(F)(F)C(F)(F)C(F)(F)C2(F)C1(F)F` (centres undefined) came in with a logP of 6.

`CC(=O)c1ccc(C)cc1` showed a logP in series [33] of 2.28.

In series [34], `CCC1(CCC(C)C)C(=O)NC(=O)NC1=O` came in with a logD of 2.07.

Consider `NC(=O)Nc1ccc(CC(=O)O)cc1`, for which, in [27], the logD is 0.01.

Turning to `Cc1ccc(C)c(C(=O)NS(=O)(=O)c2ccc(N)cc2)c1`, the logD in series [26] was 2.19.

Molecule `O=NN(CCCl)C(=O)NC1CCCCC1O` (centres undefined) yielded a logP in [20] of 1.6.

In [33], `COc1ccc(C(C)=O)cc1` had a logP of 1.82.

`CCCC1(C(N)=O)CCC=[N+]1[O-]` (centres undefined) showed a logD in series [30] of -0.68.

`CC(Oc1cc(Cl)c(Cl)cc1Cl)C(=O)O` (centres undefined) gave a logD in series [25] of 3.8.

Turning to `C=CCC1(CC)C(=O)NC(=O)NC1=O`, the logD in series [34] was determined as 0.95.

In the case of `O=[N+]([O-])c1ccccc1NS(=O)(=O)c1[nH]cnc1[N+](=O)[O-]`, the logP in series [12] was determined as 1.2.

Consider `CC(C(=O)O)c1ccccc1` (centres undefined), for which, in series [21], the logD amounted to 1.8.

On to `O=S(=O)(O)c1ccc(-c2ccc(S(=O)(=O)O)cc2)cc1`, for which the logP in [32] was determined as 0.3.

With `CCCOc1cccc(O)c1`, the logP in [31] is 2.59.

The molecule `COC(=O)COc1ccccc1` displayed a logD in series [10] of 1.41.

For `Oc1cccc2ncccc12`, in [29] (pH 7.4), the logD amounted to 2.13.

Consider `CC1(C)CCCC(C)(C)N1O`, for which the logD in series [15] was found to be 1.81.
